In the experiment the target is GFP (Aequorea victoria, UniProt P42212). As to conditions: array of randomly generated peptides; GFP binding assay. The source says:
Peptide aptamers also can be selected using a peptide array containing randomly generated peptides (e.g., 10,000 randomly generated peptides) that are 10 to 35 amino acids (e.g., 15 to 25 or 20 amino acids) in length. The peptide array can be screened using a binding assay with the protein target (e.g., GFP or thioredoxin). For example, when a fluorescent protein such as GFP is the target, GFP-binding peptides can be directly identified through a fluorescent scanner after a GFP binding assay.
Take CSGFRAMWLYRNWESQVEAT [SEQ ID NO:2]: the “binding to GFP on peptide array (strong fluorescence spots)” value (shortened to “binding to GFP on peptide array”) is “bind specifically to the GFP”.

As to CSGPYGTHFMYKSGGWRAIY [SEQ ID NO:4], the “binding to GFP on peptide array” value is given as “bind specifically to the GFP”.

As for CSGWNHVIYEGTRYNWFRDS [SEQ ID NO:3], the “binding to GFP on peptide array” value is reported as “bind specifically to the GFP”.

These data come from US20120316078A1, “METHODS AND MATERIALS FOR PRODUCING POLYPEPTIDES IN VITRO” (priority 2011, published 2012).
